Source: patent publication US5093475A (priority 1989, dated 1992)
Where a name gives a salt, the structure may show the parent alone. Marks after values point to notes of the source that are not given here.

Tests used:
[1] = Glutathione-induced TNB release from 791/iminothiolane/TNB (disulfide stability); assay type: physicochemical; details: for Reaction rate, TNB, k × 10^5 (initial rate of TNB release from 791/linker/TNB): ca. 10 μM protein-S-S-TNB, 200 μM glutathione, PBS, 0.5 mM EDTA, pH 7.25, 25° C.; for Increase in Disulfide Stability Relative to: 2IT / Increase in Disulfide Stability Relative to: SPDP: ratio of TNB release rate constants; for Increase in Disulfide Stability Relative to: SPDP: vs 791/SPDP/TNB
Description: d. The initial rate of TNB release from 791/iminothiolane/TNB induced by glutathione. Samples contained ca. 10 μM of protein-S-S-TNB and 200 μM of glutathione in PBS containing 0.5 mM EDTA, pH 7.25, and were monitored at 412nm. FIG. 1 presents the results graphically.
The relative increase in disulfide stability was also compared to 791/SPDP/TNB, and was determined as for 2IT.
791/SPDP/TNB was prepared by derivatizing 791 mAb with SPDP following conventional procedures and conditions, removing any byproducts by gel filtration, releasing the PDP group with 1 mM DTT, and then reacting the liberated sulfhydryl with DTNB. Following gel filtration, the rate of TNB release was measured as in Example 19d above.

791 mAb = assay: Rate of reaction of the 2-iminothiolanes with 791 mAb, coupled with DTNB, 412nm; details: 0.5 mM 2-iminothiolane, 20 μM 791 mAb, 2.5 mM DTNB, pH 7.5; 25° C.
Description: c. The rate of reaction of the 2-iminothiolanes (0.5 mM) with 791 mAb (20 μM), as monitored by coupling the reaction with 2.5 mM DTNB in 0.1 M NaPO4, 0.1 M NaCl, pH 7.5, and monitoring the change in absorbance at 412nm.

[2] = Hydrolysis of the 2-iminothiolane rings in PBS (pH 7.2), monitored at 248nm; assay type: physicochemical; details: 25° C.
Text: a. The rate of hydrolysis of the 2-iminothiolane rings in PBS (pH 7.2), monitored at 248nm.

[3] = Rate of reaction of the 2-iminothiolanes with glycine, coupled with DTNB, 412nm; assay type: physicochemical; details: 160 mM glycine, 0.5 mM DTNB, PBS pH 7.2; 25° C.
Description: b. The rate of reaction of the 2-iminothiolanes with 160 mM glycine in PBS (pH 7.2), monitored by coupling the reaction with 0.5 mM DTNB and following the change in absorbance at 412nm.

[4] = Thorpe et al., Cancer Res. 47:5924-5931, 1987; cited from earlier work
[5] = cited from earlier work

| SMILES | Reaction rate, TNB, k × 10^5 (initial rate of TNB release from 791/linker/TNB) [1] | Increase in Disulfide Stability Relative to: 2IT [1] | Increase in Disulfide Stability Relative to: SPDP [1] | Reaction rate, 791, k × 10^5 (791 mAb) | Reaction rate, Hydrolysis [2] | Reaction rate, Glycine, k × 10^3 [3] | stability of disulfide bond in vivo, in words [4] | solubility in water, in words (background) [5] | rate constant for unsubstituted 2-iminothiolane ([1]; TNB release from 791/linker/TNB by glutathione) |
| --- | --- | --- | --- | --- | --- | --- | --- | --- | --- |
| Cl.N=C1CCC2(CCCCC2)S1 [spiro-2IT, 2-Imino-1-thiaspiro[4.5]decane hydrochloride] | 0.11 s^-1 (k × 10^5) | 8564.0 | 2418.0 | 4.6 s^-1 (k × 10^5) | 5.6 %/hr | 3.0 s^-1 (k × 10^3) |  |  |  |
| O=C(CCSSc1ccccn1)ON1C(=O)CCC1=O [SPDP, N-succinimidyl-3-(2-pyridyldithio)propionate, reference compound] |  | 3.6 | 1.0 |  |  |  | unstable in vivo |  |  |
| CC(C)(C)C1CCC(=N)S1.Cl (stereo not drawn) [t-butyl-2IT, 5-t-Butyl-2-iminothiolane hydrochloride] | 16.4 s^-1 (k × 10^5) | 57.4 | 16.2 | 7.4 s^-1 (k × 10^5) | 6.1 %/hr | 4.4 s^-1 (k × 10^3) |  |  |  |
| Cl.N=C1CCC(c2ccccc2)S1 (stereo not drawn) [phenyl-2IT, 5-Phenyl-2-iminothiolane hydrochloride] | 45.8 s^-1 (k × 10^5) | 20.6 | 5.8 | 8.8 s^-1 (k × 10^5) | 1.5 %/hr | 5.2 s^-1 (k × 10^3) |  |  |  |
| N=C1CC2CCCCC2S1 (stereo not drawn) [ring-2IT, hydrochloride] | 82.1 s^-1 (k × 10^5) | 11.5 | 3.2 | 5.6 s^-1 (k × 10^5) | 13.4 %/hr | 3.4 s^-1 (k × 10^3) |  |  |  |
| CC1(C)CCC(=N)S1.Cl [dimethyl-2IT, 5,5-Dimethyl-2-iminothiolane hydrochloride] | 0.13 s^-1 (k × 10^5) | 7246.0 | 2046.0 | 4.6 s^-1 (k × 10^5) | 6.9 %/hr | 3.5 s^-1 (k × 10^3) |  |  |  |
| CC(SS(=O)(=O)O)c1ccc(C(=O)ON2C(=O)CCC2=O)cc1 (stereo not drawn) [SMBT, sodium S-4-succinimidyloxycarbonyl-α-methyl benzyl thiosulfate] |  |  |  |  |  |  | appear to have more stable disulfide linkages in vivo | low solubility in water |  |
| CC1CCC(=N)S1.Cl (stereo not drawn) [methyl-2IT, 5-Methyl-2-iminothiolane hydrochloride] | 75.3 s^-1 (k × 10^5) | 12.5 | 3.5 | 4.0 s^-1 (k × 10^5) | 5.4 %/hr | 4.8 s^-1 (k × 10^3) |  |  |  |
| Cl.N=C1CCCS1 [Compound 2IT, 2-iminothiolane hydrochloride, reference compound] | 942.0 s^-1 (k × 10^5) | 1.0 | 0.3 | 5.0 s^-1 (k × 10^5) | 10.2 %/hr | 5.3 s^-1 (k × 10^3) | unstable in vivo |  | 9.42×10^-3 |
| CC(SSc1ccccn1)c1ccc(C(=O)ON2C(=O)CCC2=O)cc1 (stereo not drawn) [SMPT, 4-succinimidyloxycarbonyl-α-methyl-α-(2-pyridyldithio)-toluene] |  |  |  |  |  |  | appear to have more stable disulfide linkages in vivo | low solubility in water |  |
